Several values for one entry are separate records, joined by “and”; a condition that tells them apart may be missing. Equal values may be shown once.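 A five-concentration, 48-hour dose response in 96-well plates underlies each endpoint, interpolated linearly between surrounding concentrations. Here, GI50 denotes the concentration required for 50% inhibition of growth. TGI denotes the concentration required for complete inhibition of growth.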
What was measured:
Assay in all cases: inhibition of tumour cell growth, NCI panel, 48 h
SK-MEL-2 melanoma = test system: SK-MEL-2 melanoma
HT29 colon = test system: HT29 colon
NCI-H522 lung = test system: NCI-H522 lung
T-47D breast = test system: T-47D breast
NCI-H460 lung = test system: NCI-H460 lung
A549 NSCLC = test system: A549 NSCLC
K-562 leukemia = test system: K-562 leukemia
TK-10 renal = test system: TK-10 renal
U251 CNS = test system: U251 CNS
SF-539 CNS = test system: SF-539 CNS

`O=C(Nc1cccc2cccnc12)c1ccc(N2C(=O)[C@@H]3[C@H](C2=O)[C@@H]2C=C[C@H]3C2)cc1` was tested, and the GI50 (SK-MEL-2 melanoma) was 27 µM, the TGI (SK-MEL-2 melanoma) was 80.1 µM and the GI50 (HT29 colon) was 18 µM. For the same compound, the TGI (HT29 colon) was 62.4 µM, the GI50 (NCI-H522 lung) was 18.4 µM and the TGI (NCI-H522 lung) was 54.4 µM. It also gave a GI50 (T-47D breast) of 20.2 µM, a TGI (T-47D breast) greater than 79.3 µM and a GI50 (NCI-H460 lung) of 34.6 µM. For the same compound, the TGI (NCI-H460 lung) was greater than 100 µM, the GI50 (A549 NSCLC) was 26.2 µM and the TGI (A549 NSCLC) was greater than 100 µM. For the same compound, the GI50 (K-562 leukemia) was 24.5 µM, the TGI (K-562 leukemia) was greater than 100 µM and the GI50 (TK-10 renal) was 4.13 µM. It also gave a TGI (TK-10 renal) greater than 100 µM, a GI50 (U251 CNS) of 16 µM and a TGI (U251 CNS) greater than 100 µM. The GI50 (SF-539 CNS) was 77.8 µM and the TGI (SF-539 CNS) was greater than 100 µM.
With `O=C(O)c1ccc(S(=O)(=O)N=Nc2c(O)[nH]c3ccccc23)cc1` the TGI (SK-MEL-2 melanoma) was greater than 100 µM, the TGI (HT29 colon) was greater than 100 µM and the TGI (NCI-H522 lung) was greater than 100 µM. It also gave a TGI (T-47D breast) greater than 100 µM, a TGI (NCI-H460 lung) greater than 100 µM and a TGI (A549 NSCLC) greater than 100 µM. For the same compound, the TGI (K-562 leukemia) was greater than 100 µM, the TGI (TK-10 renal) was greater than 100 µM and the TGI (U251 CNS) was greater than 100 µM. The TGI (SF-539 CNS) was greater than 100 µM.
In the case of `BrC(Br)(Br)c1cnc2ccccc2n1`, the GI50 (SK-MEL-2 melanoma) is reported as 2.72 µM, the TGI (SK-MEL-2 melanoma) is reported as 7.4 µM and the GI50 (HT29 colon) is reported as 1.06 µM. For the same compound, the TGI (HT29 colon) was 2.67 µM, the GI50 (NCI-H522 lung) was 0.544 µM and the TGI (NCI-H522 lung) was 1.28 µM. The GI50 (T-47D breast) was 1.33 µM, the TGI (T-47D breast) was 3.31 µM and the GI50 (NCI-H460 lung) was 1.36 µM. For the same compound, the TGI (NCI-H460 lung) was 4.21 µM, the GI50 (A549 NSCLC) was 1.75 µM and the TGI (A549 NSCLC) was 4.66 µM. The GI50 (K-562 leukemia) was 1.12 µM, the TGI (K-562 leukemia) was 3.55 µM and the GI50 (TK-10 renal) was 1.55 µM. For the same compound, the TGI (TK-10 renal) was 3.02 µM, the GI50 (U251 CNS) was 1.3 µM and the TGI (U251 CNS) was 3.17 µM. The GI50 (SF-539 CNS) was 2.21 µM and the TGI (SF-539 CNS) was 4.86 µM.
In the case of `COc1cccc2c1cc([N+](=O)[O-])c1c(C(=O)O)cc3c(c12)OCO3`, the GI50 (SK-MEL-2 melanoma) is reported as 22.9 µM, the TGI (SK-MEL-2 melanoma) is reported as 52.3 µM and > 100 µM and the GI50 (HT29 colon) is reported as 0.352 µM. For the same compound, the TGI (HT29 colon) was 2.42 µM and 10.4 µM, the TGI (NCI-H522 lung) was greater than 100 µM and the GI50 (T-47D breast) was 66.3 µM. For the same compound, the TGI (T-47D breast) was greater than 100 µM, the GI50 (NCI-H460 lung) was 18.2 µM and the TGI (NCI-H460 lung) was 63.7 µM and > 100 µM. For the same compound, the GI50 (A549 NSCLC) was 25.8 µM, the TGI (A549 NSCLC) was greater than 100 µM and the GI50 (K-562 leukemia) was 46.3 µM. The TGI (K-562 leukemia) was greater than 100 µM, the GI50 (TK-10 renal) was 8.86 µM and the TGI (TK-10 renal) was 48.1 µM and > 100 µM. For the same compound, the GI50 (U251 CNS) was 22.9 µM, the TGI (U251 CNS) was greater than 100 µM and the TGI (SF-539 CNS) was greater than 75.8 µM.
For `O=C(Nc1cccc(C(F)(F)F)c1)c1cccc(NC2=C(Cl)C(=O)N(Cc3ccccc3)C2=O)c1`, the GI50 (SK-MEL-2 melanoma) was 14.6 µM, the TGI (SK-MEL-2 melanoma) was 40.1 µM and the GI50 (HT29 colon) was 40.1 µM. For the same compound, the TGI (HT29 colon) was greater than 100 µM, the GI50 (NCI-H522 lung) was 4.88 µM and the TGI (NCI-H522 lung) was 23.5 µM. The GI50 (T-47D breast) was 6.28 µM, the TGI (T-47D breast) was 89.9 µM and the GI50 (NCI-H460 lung) was 8.76 µM. It also gave a TGI (NCI-H460 lung) greater than 100 µM, a GI50 (A549 NSCLC) of 17 µM and a TGI (A549 NSCLC) greater than 100 µM. The GI50 (K-562 leukemia) was 3.02 µM, the TGI (K-562 leukemia) was 17.6 µM and the GI50 (TK-10 renal) was 19.5 µM. For the same compound, the TGI (TK-10 renal) was greater than 100 µM, the GI50 (U251 CNS) was 6.17 µM and the TGI (U251 CNS) was greater than 100 µM. For the same compound, the GI50 (SF-539 CNS) was 26 µM and the TGI (SF-539 CNS) was 62.7 µM.
With `CCCCCCCCCCCCOC1C(C(COC2OC(C(O)CN3CCCCC3)C3OC(C)(C)OC23)NC(=O)Nc2ccccc2)OC2OC(C)(C)OC21` (stereo not drawn) the GI50 (SK-MEL-2 melanoma) was 19.6 µM, the TGI (SK-MEL-2 melanoma) was 41.6 µM and the GI50 (HT29 colon) was 2 µM. The TGI (HT29 colon) was 4.73 µM, the GI50 (NCI-H522 lung) was 17.5 µM and the TGI (NCI-H522 lung) was 48 µM. The GI50 (T-47D breast) was 14.5 µM, the TGI (T-47D breast) was 37.8 µM and the GI50 (NCI-H460 lung) was 4.52 µM. It also gave a TGI (NCI-H460 lung) of 16.9 µM, a GI50 (A549 NSCLC) of 11.4 µM and a TGI (A549 NSCLC) of 38 µM. The GI50 (K-562 leukemia) was 2.06 µM, the TGI (K-562 leukemia) was 5.65 µM and the GI50 (TK-10 renal) was 10.2 µM. It also gave a TGI (TK-10 renal) of 26 µM, a GI50 (U251 CNS) of 9.46 µM and a TGI (U251 CNS) of 27.2 µM. For the same compound, the GI50 (SF-539 CNS) was 16.6 µM and the TGI (SF-539 CNS) was 31.4 µM.
`CCN(Cc1nc2cc(C(F)(F)F)ccc2nc1-c1ccccc1)c1ccc(OC)c(OC)c1` gave a GI50 (SK-MEL-2 melanoma) of 16.7 µM, a TGI (SK-MEL-2 melanoma) of 34.7 µM and a GI50 (HT29 colon) of 14.9 µM. The TGI (HT29 colon) was greater than 100 µM, the GI50 (NCI-H522 lung) was 14.5 µM and the TGI (NCI-H522 lung) was 34 µM. The GI50 (T-47D breast) was 18.5 µM, the TGI (T-47D breast) was 61.2 µM and the GI50 (NCI-H460 lung) was 22.2 µM. For the same compound, the TGI (NCI-H460 lung) was greater than 100 µM, the GI50 (A549 NSCLC) was 0.369 µM and the TGI (A549 NSCLC) was 16.3 µM. For the same compound, the GI50 (K-562 leukemia) was 6.72 µM, the TGI (K-562 leukemia) was 24.6 µM and the GI50 (TK-10 renal) was 28 µM. For the same compound, the TGI (TK-10 renal) was 82.3 µM, the GI50 (U251 CNS) was 6.49 µM and the TGI (U251 CNS) was 19.1 µM. It also gave a GI50 (SF-539 CNS) of 15.9 µM and a TGI (SF-539 CNS) of 33.1 µM.

— PubChem BioAssay (NCI)
